Results reported in ChEMBL document CHEMBL1151566, “Cephem sulfones as inactivators of human leukocyte elastase. II. Keto-enol tautomerish in cephem-4-ketones” (Bioorg Med Chem Lett, 1992).

Assays:
[1] = pKa value was determined; type: physicochemical
[2] = Chemical half-life was evaluated at 37 degree C expressed as stability towards hydrolysis; type: physicochemical
[3] = biological target: T1, Neutrophil elastase (Homo sapiens) (UniProt P08246); assay: Inhibition of human leukocyte elastase II (HLE-II) as second order rate constant
T1 sequence (whole entry): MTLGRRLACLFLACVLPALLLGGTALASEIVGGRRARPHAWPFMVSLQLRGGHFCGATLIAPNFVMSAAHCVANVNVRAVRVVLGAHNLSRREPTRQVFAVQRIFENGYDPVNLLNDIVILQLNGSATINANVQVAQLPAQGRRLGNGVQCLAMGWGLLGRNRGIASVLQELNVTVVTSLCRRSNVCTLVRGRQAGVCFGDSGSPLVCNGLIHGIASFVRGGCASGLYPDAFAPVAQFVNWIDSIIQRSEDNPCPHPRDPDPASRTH

| Structure (SMILES) | pKa [1] | half-life [2] [h] | k on [3] [M⁻¹ s⁻¹] |
| --- | --- | --- | --- |
| CO[C@H]1C(=O)N2C(C(=O)C(C)(C)C)=C(C)C(Sc3nc(=O)c(=O)[nH]n3C)S(=O)(=O)[C@H]12 (some centres not stated) | 8.9 | 16.3 | 54000 |
| CO[C@H]1C(=O)N2C(C(=O)c3ccccc3)=C(C)C(Sc3nc(=O)c(=O)[nH]n3C)S(=O)(=O)[C@H]12 (some centres not stated) | 5.7 | 86 | 930 |
| CO[C@H]1C(=O)N2C(C(=O)C(C)(C)C)=C(CSc3nnnn3C)CS(=O)(=O)[C@H]12 | 11.6 | 24 | – |
| CO[C@H]1C(=O)N2C(C(=O)c3ccccc3)=C(C)CS(=O)(=O)[C@H]12 | 9.6 | 33 | – |
| CO[C@H]1C(=O)N2C(C(=O)C(C)(C)C)=C(CSc3nnnn3C)C(Sc3nnnn3C)S(=O)(=O)[C@H]12 (some centres not stated) | 6 | 24 | – |
| CO[C@H]1C(=O)N2C(C(=O)c3ccccc3)=C(CSc3nnnn3C)CS(=O)(=O)[C@H]12 | 8.4 | 8.6 | – |
| CO[C@H]1C(=O)N2C(C(=O)C(C)(C)C)=C(C)C(Sc3nnnn3C)S(=O)(=O)[C@H]12 (some centres not stated) | 7.9 | 14.8 | 100000 |

More lines, now with the values ahead:

| pKa [1] | half-life [2] [h] | k on [3] [M⁻¹ s⁻¹] | Structure (SMILES) |
| --- | --- | --- | --- |
| 11.9 | 37 | 32000 | CO[C@H]1C(=O)N2C(C(=O)C(C)(C)C)=C(CSc3nnc(C)s3)CS(=O)(=O)[C@H]12 |
| 3.5 | 850 | – | CO[C@H]1C(=O)N2C(C(=O)c3ccccc3)=C(CSc3nnnn3C)C(Sc3nnnn3C)S(=O)(=O)[C@H]12 (some centres not stated) |
| – | 130 | – | CO[C@H]1C(=O)N2C(C(=O)C(C)(C)C)=C(C)CS(=O)(=O)[C@H]12 |
| 5.8 | 46 | 21000 | CO[C@H]1C(=O)N2C(C(=O)C(C)(C)C)=C(CSc3nnc(C)s3)C(Sc3nnc(C)s3)S(=O)(=O)[C@H]12 (some centres not stated) |
| 4.8 | 120 | 200 | CO[C@H]1C(=O)N2C(C(=O)c3ccccc3)=C(C)C(Sc3nnnn3C)S(=O)(=O)[C@H]12 (some centres not stated) |
| 7.5 | 26 | 42000 | CO[C@H]1C(=O)N2C(C(=O)C(C)(C)C)=C(C)C(Sc3nnc(C)s3)S(=O)(=O)[C@H]12 (some centres not stated) |
